Experimental data as given in ChEMBL document CHEMBL1133369, “Synthesis and preliminary biological evaluation of [3H]-MRE 3008-F20: the first high affinity radioligand antagonist for the human A3 adenosine receptors” (Bioorg Med Chem Lett, 2000).

What was measured:
[1] = target: T1, Adenosine receptor A3 (Homo sapiens) (UniProt P0DMS8); assay: Binding affinity against human AAdenosine A3 receptor in CHO cells; assay type: cell-based
T1 sequence (whole entry): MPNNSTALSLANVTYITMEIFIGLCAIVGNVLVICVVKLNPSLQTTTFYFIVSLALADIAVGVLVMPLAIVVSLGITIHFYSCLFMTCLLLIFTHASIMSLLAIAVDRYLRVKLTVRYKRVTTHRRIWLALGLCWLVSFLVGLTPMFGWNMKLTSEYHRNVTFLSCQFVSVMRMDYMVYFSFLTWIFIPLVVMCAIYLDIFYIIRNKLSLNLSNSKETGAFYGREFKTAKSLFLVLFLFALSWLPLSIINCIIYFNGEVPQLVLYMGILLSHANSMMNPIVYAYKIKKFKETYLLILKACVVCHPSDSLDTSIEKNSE

Adenosine receptor A3 = target: T2, Adenosine receptor A3 (Homo sapiens, UniProt P0DMS8); assay: Binding affinity against human Adenosine A3 receptor in CHO cells; assay type: cell-based
T2 sequence (P0DMS8 whole entry): T1 sequence (whole entry)

Bmax [1]: 297 fmol/mg
Kd (Adenosine receptor A3): 820 pM
SMILES: C=CCn1cc2c(nc(NC(=O)Nc3ccc(OC)cc3)n3nc(-c4ccco4)nc23)n1
